According to EP2246329A1, “4(1H)-pyridinone derivatives and their use as antimalaria agents” (Glaxo Group Limited, priority 2009, dated 2010):
Counter-ions that a name gives are not always drawn.

These compounds were tested on Plasmodium falciparum (assay: In vitro anti-malarial activity against Plasmodium falciparum, IC50 assay / [3H]-Hypoxanthine incorporation assay). Conditions: Erythrocyte; Plasmodium falciparum strains in parasitized red blood cells, [3H]-hypoxanthine incorporation, 48 hours at 37°C.
Assay type: cell-based
Description: The compounds of this invention may be tested in one of several biological assays to determine the concentration of compound which is required to have a given pharmacological effect. In vitro anti-malarial activity against Plasmodium falciparum. IC50 assay / [^3H]-Hypoxanthine assay
The culture medium comprised RPMI 1640 with 25mM HEPES, sodium bicarbonate and glutamine (GIBCO™ cat. ref.: 52400), supplemented with 10% of pooled human sera AB (Irvine Scientific, cat. ref.: 5009) and HT supplement (0.15 mM hypoxanthine and 24 µM thymidine), (GIBCO™ cat. ref.: 41065). Human sera were decomplemented 30 min. at 56°C, aliquoted and stored frozen at -20°C until use in this culture medium.
This culture medium ("complete medium") was usually prepared fresh just before use and pre-warmed to 37°C.
Red blood cells O+ stock suspensions were prepared from whole blood bags coming from incomplete blood donation, provided by the Spanish Red Cross (<25 days after sampling). This "whole blood" was aliquoted and stored at 4°C.
To prepare red blood cells for the assay, the whole blood was centrifuged and washed 3 times with RPMI without serum. The upper phase, containing white blood cells was removed. The washed red blood cells were kept as a 50 % suspension in complete medium. The prepared cells were stored at 4°C and were employed in the assay at any time up to 4 days after preparation.
Test compounds were dissolved at 2 mg/ml in 100% DMSO on the day of the assay. If necessary, complete dissolution was achieved by gentle heating (the mixture was heated at a temperature <37°C) and sonication (sonication bath).
For IC50 determinations, 10 serial 2-fold dilutions were prepared in complete medium in the presence of a constant amount of DMSO. Any obvious signs of insolubility of the stock solutions in 100% DMSO or precipitation when these solutions were diluted in assay media, were recorded.
Plasmodium falciparum strains were maintained in complete medium at an hematocrit of 5% in continuous culture using a method adapted from that published by Trager and Jensen(1) and Traeger(2).
The parasitemia was calculated by counting the percentage of parasitized erythrocytes by optical microscopy. Thin films of blood were made every day from each culture flask, fixed with methanol and stained for 10 min. in Giemsa (Merck, cat. ref.: 1.09204) at 10 % in buffered water pH 7.2. The glass slides were observed and counted with an optical microscope (Nikon, Eclipse E200) equipped with a 100 X immersion oil objective.
The culture was maintained at an hematocrit of 5%, with a daily change of medium and was diluted when parasitemia had reached about 5%.
[^3H] Hypoxanthine incorporation assay was conducted using a method adapted from Desjardins et al. (3). The assays were performed in 96 wells flat bottom microplates. • 1. Serial dilutions of the test compounds (50µl of a 5X solution / well) were deposited in duplicate. Compounds of the invention were tested in this assay. Chloroquine and Atovaquone were used as control compounds for each assay. • 2. […] [^3H]-Hypoxanthine (Amersham Biosciences, cat. ref.: TRK74) was added extemporaneously to the inoculum suspension at a concentration of 1 µCi/ml (equating to […]). 200 µl of the resulting suspension was distributed into each well (other than the control well H12 described below) leading to a final volume of 250 µl per well, at 2% of hematocrit and 0.5 % of parasitemia / well. • 4. […]

| Structure (SMILES) | IC50 |
| --- | --- |
| CCCN(CC#Cc1ccc(-c2c(C)[nH]c(C)c(Cl)c2=O)cc1)Cc1ccc(OC(F)(F)F)cc1.Cl [Example 21, 3-Chloro-2,6-dimethyl-5-(4-{3-[propyl({4-[(trifluoromethyl)oxy]phenyl}methyl)amino]-1-propyn-1-yl}phenyl)-4(1H)-pyridinone hydrochloride] | < 0.125 µg/mL |
| Cc1[nH]c(C)c(-c2ccc(C3=CCN(Cc4ccc(OC(F)(F)F)cc4)CC3)cc2)c(=O)c1Cl.Cl [Example 32, 3-Chloro-2,6-dimethyl-5-{4-[1-({4-[(trifluoromethyl)oxy]phenyl}methyl)-1,2,3,6-tetrahydro-4-pyridinyl]phenyl}-4(1H)-pyridinone hydrochloride] | < 0.125 µg/mL |
| Cc1[nH]c(C)c(-c2ccc(C#CCN(C)Cc3ccccc3C(F)(F)F)cc2)c(=O)c1Cl [Example 3, 3-Chloro-2,6-dimethyl-5-{4-[3-(methyl{[2-(trifluoromethyl)phenyl]methyl}amino)-1-propyn-1-yl]phenyl}-4(1H)-pyridinone] | < 0.125 µg/mL |
| CCCN(CC#Cc1ccc(-c2c(C)[nH]c(C)c(Cl)c2=O)cc1)Cc1ccc(OC(F)(F)F)cc1.O=C(O)C(F)(F)F [Example 6, 3-Chloro-2,6-dimethyl-5-(4-{3-[propyl({4-[(trifluoromethyl)oxy]phenyl}methyl)amino]-1-propyn-1-yl}phenyl)-4(1H)-pyridinone trifluoroacetate] | < 0.125 µg/mL |
| Cc1[nH]c(C)c(-c2ccc(C#CCN(C)Cc3ccc(S(C)(=O)=O)cc3)cc2)c(=O)c1Cl.Cl [Example 47, 3-Chloro-2,6-dimethyl-5-{4-[3-(methyl{[4-(methylsulfonyl)phenyl]methyl}amino)-1-propyn-1-yl]phenyl}-4(1H)-pyridinone hydrochloride] | < 0.125 µg/mL |
| Cc1[nH]c(C)c(-c2ccc(C#CCN(C)Cc3cccn3C)cc2)c(=O)c1Cl.Cl [Example 44, 3-Chloro-2,6-dimethyl-5-[4-(3-{methyl[(1-methyl-1H-pyrrol-2-yl)methyl]amino}-1-propyn-1-yl)phenyl]-4(1H)-pyridinone hydrochloride] | < 0.125 µg/mL |
| Cc1[nH]c(C)c(-c2ccc(C#CCN(Cc3ccccc3)Cc3ccccc3)cc2)c(=O)c1Cl.Cl [Example 12, 3-(4-{3-[Bis(phenylmethyl)amino]-1-propyn-1-yl}phenyl)-5-chloro-2,6-dimethyl-4(1H)-pyridinone hydrochloride] | < 0.125 µg/mL |
| Cc1[nH]c(C)c(-c2ccc(C#CCN(C)Cc3ccc(F)cc3)cc2)c(=O)c1Cl [Example 50, 3-Chloro-5-(4-{3-[[(4-fluorophenyl)methyl](methyl)amino]-1-propyn-1-yl}phenyl)-2,6-dimethyl-4(1H)-pyridinone] | < 0.125 µg/mL |
| Cc1ccc(CN(C)CC#Cc2ccc(-c3c(C)[nH]c(C)c(Cl)c3=O)cc2)s1.Cl [Example 42, 3-Chloro-2,6-dimethyl-5-[4-(3-{methyl[(5-methyl-2-thienyl)methyl]amino}-1-propyn-1-yl)phenyl]-4(1H)-pyridinone hydrochloride] | < 0.125 µg/mL |
| COCCN(CC#Cc1ccc(-c2c(C)[nH]c(C)c(Cl)c2=O)cc1)Cc1ccc(OC(F)(F)F)cc1 [Example 9, 3-Chloro-2,6-dimethyl-5-(4-{3-[[2-(methyloxy)ethyl]({4-[(trifluoromethyl)oxy]phenyl}-methyl)amino]-1-propyn-1-yl}phenyl)-4(1H)-pyridinone] | < 0.125 µg/mL |
| Cc1[nH]c(C)c(-c2ccc(C#CCN3CCc4cc(C(F)(F)F)ccc4C3)cc2)c(=O)c1Cl.Cl [Example 14, 3-Chloro-2,6-dimethyl-5-(4-(3-[6-(trifluoromethyl)-3,4-dihydro-2(1H)-isoquinolinyl]-1-propyn-1-yl}phenyl)-4(1H)-pyridinone hydrochloride] | < 0.125 µg/mL |
| Cc1[nH]c(C)c(-c2ccc(C#CCN(C)CCc3ccc(OC(F)(F)F)cc3)cc2)c(=O)c1Cl.Cl [Example 17, 3-Chloro-2,6-dimethyl-5-(4-{3-[methyl(2-{4-[(trifluoromethyl)oxy]phenyl}ethyl)amino]-1-propyn-1-yl}phenyl)-4(1H)-pyridinone hydrochloride] | < 0.125 µg/mL |
| Cc1[nH]c(C)c(-c2ccc(C#CCCN(C)Cc3ccc(OC(F)(F)F)cc3)cc2)c(=O)c1Cl.Cl [Example 18, 3-Chloro-2,6-dimethyl-5-(4-{4-[methyl({4-[(trifluoromethyl)oxy]phenyl}methyl)amino]-1-butyn-1-yl}phenyl)-4(1H)-pyridinone hydrochloride] | < 0.125 µg/mL |
| Cc1[nH]c(C)c(-c2ccc(C#CCN3CCCCC3c3ccccc3)cc2)c(=O)c1Cl.Cl (stereo not drawn) [Example 13, 3-Chloro-2,6-dimethyl-5-{4-[3-(2-phenyl-1-piperidinyl)-1-propyn-1-yl]phenyl}-4(1H)-pyridinone hydrochloride] | < 0.125 µg/mL |
| Cc1[nH]c(C)c(-c2ccc(OCCN3CCC(C(F)(F)F)CC3)nc2)c(=O)c1Cl.Cl [Example 68, 5-chloro-2,6-dimethyl-6'-({2-[4-(trifluoromethyl)-1-piperidinyl]ethyl}oxy)-3,3'-bipyridin-4(1H)-one hydrochloride] | 0.21 µg/mL |

The remaining lines, values ahead:

| IC50 | Structure (SMILES) |
| --- | --- |
| < 0.125 µg/mL | Cc1[nH]c(C)c(-c2ccc(C#CCN(C)Cc3ccc(OC(F)(F)F)cc3)cc2)c(=O)c1Cl [Example 1, 3-Chloro-2,6-dimethyl-5-(4-{3-[methyl({4-[(trifluoromethyl)oxy]phenyl}methyl)amino]-1-propyn-1-yl}phenyl)-4(1H)-pyridinone] |
| < 0.125 µg/mL | Cc1[nH]c(C)c(-c2ccc(C#CCNCc3ccc(OC(F)(F)F)cc3)cc2)c(=O)c1Cl [Example 8, 3-Chloro-2,6-dimethyl-5-(4-{3-[({4-[(trifluoromethyl)oxy]phenyl}methyl)amino]-1-propyn-1-yl}phenyl)-4(1H)-pyridinone] |
| < 0.125 µg/mL | Cc1[nH]c(C)c(-c2ccc(-c3ccc(CN4CCC(F)(F)C4)cc3)cc2)c(=O)c1Cl.Cl [Example 60, 3-chloro-5-{4'-[(3,3-difluoro-1-pyrrolidinyl)methyl]-4-biphenylyl}-2,6-dimethyl-4(1H)-pyridinone hydrochloride] |
| < 0.125 µg/mL | Cc1[nH]c(C)c(-c2ccc(C#CCN(C)Cc3ccc(OC(F)(F)F)cc3)cc2)c(=O)c1Cl.Cl [Example 19, 3-Chloro-2,6-dimethyl-5-(4-{3-[methyl({4-[(trifluoromethyl)oxy]phenyl}methyl)amino]-1-propyn-1-yl}phenyl)-4(1H)-pyridinone hydrochloride] |
| < 0.125 µg/mL | Cc1[nH]c(C)c(-c2ccc(-c3ccc(CN(C)Cc4ccc(OC(F)(F)F)cc4)s3)cc2)c(=O)c1Cl.O=C(O)C(F)(F)F [Example 26, 3-Chloro-2,6-dimethyl-5-[4-(5-{[methyl({4-[(trifluoromethyl)oxy]phenyl}methyl)amino]-methyl}-2-thienyl)phenyl] -4(1H)-pyridinone trifluoroacetate] |
| < 0.125 µg/mL | Cc1[nH]c(CO)c(Cl)c(=O)c1-c1ccc(-c2ccc(CN3CCC(c4ccc(OC(F)(F)F)cc4)CC3)cc2)cc1.Cl [Example 63, 3-chloro-2-(hydroxymethyl)-6-methyl-5-{4'-[(4-{4-[(trifluoromethyl)oxy]phenyl}-1-piperidinyl)methyl]-4-biphenylyl}-4(1H)-pyridinone hydrochloride] |
| < 0.125 µg/mL | Cc1[nH]c(C)c(-c2ccc(CN3CCC(c4ccc(OC(F)(F)F)cc4)CC3)cc2)c(=O)c1Cl.Cl [Example 24, 3-Chloro-2,6-dimethyl-5-{4-[(4-{4-[(trifluoromethyl)oxy]phenyl}-1-piperidinyl)methyl]-phenyl}-4(1H)-pyridinone hydrochloride] |
| < 0.125 µg/mL | Cc1[nH]c(C)c(-c2ccc(C#CCN3CCC(c4ccc(OC(F)(F)F)cc4)CC3)cc2)c(=O)c1Cl.Cl [Example 11, 3-Chloro-2,6-dimethyl-5-{4-[3-(4-{4-[(trifluoromethyl)oxy]phenyl}-1-piperidinyl)-1-propyn-1-yl]phenyl}-4(1H)-pyridinone hydrochloride] |

Same assay, conditions: Plasmodium falciparum, Erythrocyte

| Structure (SMILES) | IC50 |
| --- | --- |
| Cc1[nH]c(C)c(-c2ccc(C#CCN(Cc3ccc(OC(F)(F)F)cc3)CC3CCCC3)cc2)c(=O)c1Cl [Example 38, 3-Chloro-5-(4-{3-[(cyclopentylmethyl)({4-[(trifluoromethyl)oxy]phenyl}methyl)aminol-1-propyn-1-yl}phenyl)-2,6-dimethy)-4(1H)-pyridinone hydrochloride] | < 0.125 µg/mL |
